Test results as given in patent US20220202739A1, “ENDOCANNABINOID MIMETIC AND ANTI-INFLAMMATORY COMPOUND CONTAINING COMPOSITIONS, METHODS OF PREPARATION AND USES THEREOF” (priority 2019, published 2022).
Where two headings read alike, the source gives them in different places.

Tests used:
NFKB1 = test: Gene expression custom microarray, pooled keratinocyte line (Example 3): NFKB1; assay type: cell-based, human; conditions: pooled keratinocytes, 20 ppm, 24 hr
Description: NOTE: Standard maximum levels of solvent are 0.1% for DMSO and 0.5% for ETOH.
The plates were returned to the incubator for 24 hrs.
At the end of the 24 hr time period, the plates were removed from the incubator, the test media aspirated, and the cells rinsed with PBS. […] Pipet multiple times to ensure thorough lysis. Add lysed cells to the collection tube. • Add 350 μl of 70% ETOH to the collection tube and mix thoroughly. • Pipet the generated lysate onto the spin column placed in a new 2 ml tube. Centrifuge for 30 sec between 8,000 and 10,000 g. • Place the spin column containing the now bound RNA, in a new 2 ml tube. Add 700 μl of low stringency wash solution to the spin column. Centrifuge for 30 sec between 8,000 and 10,000 g. Discard the flow through and replace spin column. • Add 80 μl of DNase I dilution to the spin column and incubate at room temperature for 15 minutes. • Add 700 μl of high stringency wash solution to the column and centrifuge for 30 sec between 8,000 and 10,000 g. Discard flow through. • Add 700 μl of low stringency wash solution to the column and centrifuge for 60 sec between 8,000 and 10,000 g. Discard flow through. • Centrifuge for 2 minutes to remove residual wash solution. • Transfer spin column to new 1.5 ml collection tube and add 80 μl of elution solution to the column. Allow 1 minute for saturation of the membrane and then centrifuge for 2 minutes to complete the RNA elution. • Quantify the quantity of RNA and store at −20 C° until use (no more than 1 month)

CNR2 = test: Gene expression custom microarray, human skin fibroblasts (Example 1): CNR2; assay type: cell-based; conditions: for fold induction at 10 µM: Skin fibroblast, read-out: CNR2↑ gene expression, fold increase or decrease vs untreated cells
Text: Cell cultures: A human skin fibroblast cell culture (or cultures) was obtained through the Coriell Cell Repository from the National Institute on Aging Cell Repository (Camden, N.J.), or Promocell GmbH (Heidelberg, Germany). The initial culture was selected from the following cell lines: AG13066, AG11557, AG11796 or GM03651E. The cell lines were derived from donors as follows:
Experimental phase: When the appropriate quantity of cells had been grown, they were detached as described above, but at the final step were seeded into each well of one or more 6 well dishes. Each well received 2 ml of the cell suspension so they were seeded equally. The dishes were returned to the incubator until 85-95% confluency was reached.
It is at this stage that all wells were rinsed in PBS after aspirating the growth media. The compound(s) to be tested were previously mixed into a suitable solvent (e.g., DMSO or ethanol) that can be diluted to the desired concentration of test compound (10 μl) in the culture wells without exceeding maximum solvent concentrations and adversely effecting cell viability, and mixed with basal media. NOTE: Standard maximum levels of solvent are 0.1% for DMSO and 0.5% for ETOH. The concentration of each test compound is found in Tables 1 & 2.
Every 2 wells on the 6 well plate served as a biological replicate for the purposes of RNA isolation and genetic expression evaluations making each 6 well dish an n=3 for the test compound(s) contained in the media. Negative control plates (no test compound(s) and only basal media) were also generated. The plates were returned to the incubator for 24 hrs.
At the end of the 24 hr time period, the plates were removed from the incubator, the test media aspirated, and the cells rinsed with PBS. RNA isolation is performed using the BioRad Aurum Total RNA Mini Kit (Hercules, Calif.) per manufacturer's protocol; which is described, in brief, below: • Add 350 μl of lysis buffer to each well. Pipet multiple times to ensure thorough lysis. Add lysed cells to the collection tube. • Add 350 μl of 70% ETOH to the collection tube and mix thoroughly. • Pipet the generated lysate onto the spin column placed in a new 2 ml tube. Centrifuge for 30 sec between 8,000 and 10,000 g. • Place the spin column containing the now bound RNA, in a new 2 ml tube. Add 700 μl of low stringency wash solution to the spin column. Centrifuge for 30 sec between 8,000 and 10,000 g. Discard the flow through and replace spin column. • Add 80 μl of DNase I dilution to the spin column and incubate at room temperature for 15 minutes. • Add 700 μl of high stringency wash solution to the column and centrifuge for 30 sec between 8,000 and 10,000 g. Discard flow through. • Add 700 μl of low stringency wash solution to the column and centrifuge for 60 sec between 8,000 and 10,000 g. Discard flow through. • Centrifuge for 2 minutes to remove residual wash solution. • Transfer spin column to new 1.5 ml collection tube and add 80 μl of elution solution to the column. Allow 1 minute for saturation of the membrane and then centrifuge for 2 minutes to complete the RNA elution. • Quantify the quantity of RNA and store at −20 C° until use (no more than 1 month)
The genes tested were: • Cannabinoid receptor 1 (CB1(CNR1)) • Cannabinoid receptor 2 (CB2 (CNR2)) • Fatty acid amide hydrolase (FAAH) • Monoacylglycerol lipase (MGLL, i.e., MAGL) • Peroxisome proliferator-activated receptor gamma (PPARG) • Nuclear factor kappa-light-chain-enhancer of activated B cells (NFκβ) • Interleukin 1 Alpha (IL1alpha) • Cyclooxygenase 1 (PTGS1, i.e., COX1) • Transient receptor potential cation channel subfamily A member 1 (TRPA1) • Transient receptor potential cation channel subfamily V member 1 (TRPV1) • Transient receptor potential cation channel subfamily M member 8 (TRPM8) • Hemoglobin Subunit Beta (HBB) REFERENCE GENE • Ribosomal Protein L13a (RPL13A) REFERENCE GENE […]

[1] = human skin fibroblasts, 10 uM, 24 hr

| SMILES | ↓NFKB1 gene expression, fold increase or decrease vs untreated cells (NFKB1) | fold induction at 10 µM (CNR2; Homo sapiens, 24 h) | CNR2↑ gene expression, fold increase or decrease vs untreated cells (CNR2; [1]) | fold induction at 10 µM (CNR2; [1]) |
| --- | --- | --- | --- | --- |
| C=C(C)[C@@H]1CCC(C)=C[C@H]1c1c(O)cc(CCCCC)cc1O [CBD, cannabidiol, reference compound] | 2.5 fold | 1.7 |  |  |
| CCCCCCCCCCCCCCCC(=O)NCCO [N-palmitoylethanolamide] | −2.2 fold |  | 3.9 fold |  |
| CC(C)[C@]12O[C@H]1[C@@H]1O[C@]13[C@]1(O[C@H]1C[C@H]1C4=C(CC[C@@]13C)C(=O)OC4)[C@@H]2O [Triptolide] | −4.2 fold |  |  | 10.1 |
